The numbers were not newly measured in patent publication US20240100117A1, “NUTRITION-BASED METHOD FOR MANAGING ANIMAL BEHAVIOR” (Morgenstern & Associates, LLC, priority 2022, published 2024), which cites them from elsewhere.

For data set [1] the following is noted: general reference values; at room temperature.
Data set [2] relates to conversion of 5-HTP to serotonin. To be noted: supplementation, primate animal models.

Each structure is given as a SMILES string.

As to `OCC(O)CO` [glycerin], in data set [1], the viscosity result was “about 950 cP”. With `Cc1ncc(CO)c(CO)c1O` [vitamin B6, pyridoxine], the “conversion of 5-HTP to serotonin” value in data set [2] is listed as “increased the conversion of 5-HTP to serotonin”. With `O` [water], the viscosity entry in data set [1] is given as “about 1 cP”.
